T1: PML-RARA oncogenic fusion protein (Homo sapiens, UniProt P10276+P29590)
T1 construct: PML portion (fusion partner, human Protein PML, P29590); endogenous in cells; host or cells: NB4 acute promyelocytic leukemia cells
T1 sequence (P29590+P10276 with tags, fused parts or gaps): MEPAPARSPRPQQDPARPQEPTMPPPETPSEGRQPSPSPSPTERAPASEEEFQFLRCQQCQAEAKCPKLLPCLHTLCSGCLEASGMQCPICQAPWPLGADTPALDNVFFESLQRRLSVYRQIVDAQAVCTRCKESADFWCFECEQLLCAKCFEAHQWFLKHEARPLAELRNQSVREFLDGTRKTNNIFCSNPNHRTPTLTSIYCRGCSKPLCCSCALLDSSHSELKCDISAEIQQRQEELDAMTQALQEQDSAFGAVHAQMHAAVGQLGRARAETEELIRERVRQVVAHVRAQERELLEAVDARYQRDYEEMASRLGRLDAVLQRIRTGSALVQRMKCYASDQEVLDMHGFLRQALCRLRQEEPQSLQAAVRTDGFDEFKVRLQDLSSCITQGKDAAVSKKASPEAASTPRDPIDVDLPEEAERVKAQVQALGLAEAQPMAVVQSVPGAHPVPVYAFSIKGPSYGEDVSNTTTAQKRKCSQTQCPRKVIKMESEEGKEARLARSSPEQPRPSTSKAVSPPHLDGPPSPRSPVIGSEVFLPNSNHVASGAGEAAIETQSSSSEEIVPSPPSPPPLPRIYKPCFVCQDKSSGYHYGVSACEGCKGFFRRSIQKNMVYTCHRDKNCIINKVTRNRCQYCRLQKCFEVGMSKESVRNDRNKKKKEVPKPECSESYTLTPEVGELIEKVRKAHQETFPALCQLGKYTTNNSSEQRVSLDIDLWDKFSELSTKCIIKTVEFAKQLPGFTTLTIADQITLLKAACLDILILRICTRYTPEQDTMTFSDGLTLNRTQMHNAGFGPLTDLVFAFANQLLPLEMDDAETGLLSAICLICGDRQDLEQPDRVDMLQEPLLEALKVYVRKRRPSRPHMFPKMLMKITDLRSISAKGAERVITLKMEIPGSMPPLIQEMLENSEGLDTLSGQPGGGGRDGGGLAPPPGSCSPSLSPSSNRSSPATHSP

B1: APEX2-F: FLAG-tagged APEX2 peroxidase alone, negative control probe; amino acid SEQ ID NO: 21 (protein)
chain: MGKSYPTVSADYQDAVEKAKKKLRGFIAEKRCAPLMLRLAFHSAGTFDKGTKTGGPFGTIKHPAELAHSANNGLDIAVRLLEPLKAEFPILSYADFYQLAGVVAVEVTGGPKVPFHPGREDKPEPPPEGRLPDPTKGSDHLRDVFGKAMGLTDQDIVALSGGHTIGAAHKERSGFEGPWTSNPLIFDNSYFTELLSGEKEGLLQLPSDKALLSDPVFRPLVDKYAADEDAFFADYAEAHQKLSELGFADADYKDDDDK
modifications: FLAG tag

Legend:
NB4 cells [1] = assay: Cell proliferation assay (CellTiter-Glo); format: cell-based, human; conditions: 1 μM ATRA, 48 hours, versus DMSO
Method: Cell proliferation assay. NB4 cells were seeded at a density of 5e5 cells/mL subjected to either DMSO or 1 μM ATRA. After 48 hours, 50 μL cell suspension was added to 50 μL CellTiter-Glo reagent, incubated for 10 minutes at room temperature, and assayed for luminescence with a SpectraMax iD3 plate reader.

NB4 cells [2] = assay: Granulocytic differentiation analysis (flow cytometry); format: cell-based, human; conditions: 1 μM ATRA, 48 hours, versus DMSO
Method: NB4 cells treated either with DMSO or 1 μM ATRA were washed with 2% fetal bovine serum prior to staining. Anti-human CD11b-PE-Cy7 antibody conjugate (Clone: ICRF44, Biolegend Catalog #301321; 1:100) and anti-human CD11c-APC antibody conjugate (Clone: B-1y6, BD Pharmingen #559877; 1:100) were incubated with samples for 20 minutes and then washed to remove excess antibody. Stained samples were analyzed on a Beckman Coulter CytoFLEX LX flow cytometer with the CytoExpert v2.3.1.22 software. Data were analyzed with FlowJo v10.0.7.

[3] = target: T1, PML-RARA oncogenic fusion protein; assay: Western blotting analysis of the PML epitope; format: cell-based; conditions: NB4 cells, 48 hours ATRA versus DMSO
Method: Western blotting analysis. Whole cell or nuclear lysates were generated by resuspending cells or nuclei in RIPA (Boston BioProducts) supplemented with 1× cOmplete EDTA-free protease inhibitor cocktail (Roche). Lysates were incubated on ice for 30 minutes, sonicated via a Sonic Dismembrator 100 (Fisher Scientific) at setting 3 with 3-4 pulses of 15 seconds on/off on ice, and treated with benzonase for an additional 30 minutes on ice. Lysates were clarified by centrifugation (15,000×g, 20 minutes, 4° C.) and their concentrations quantified via the detergent-compatible Bradford assay (Thermo Fisher Scientific). All Western blots were run on NuPAGE 4-12% Bis-Tris protein gels (Thermo Fisher Scientific) and transferred to 0.2 μm nitrocellulose membranes (GE Healthcare). Membranes were blocked with 3% milk in PBS-T and incubated overnight with primary antibody and subsequently with secondary antibody after brief washing with PBS-T. Chemiluminescence was determined by applying ECL Western Blotting detection reagent (GE Healthcare) to membranes and imaging on an Amersham Imager 600 (GE Healthcare). Membranes were stripped with Restore PLUS Stripping Buffer (Thermo Fisher Scientific). Primary antibodies used were anti-FLAG M2 (mouse, Sigma-Aldrich, F1804, 1:2000), anti-PCNA (mouse, PC10, Santa Cruz Biotechnology sc-56, 1:1000), and anti-PML (rabbit, Bethyl A301-[MUT], 1:1000). […]

NB4 cells [4] = assay: iDAPT-MS of NB4 nuclei, ATRA versus DMSO; format: cell-based, human; conditions: TP3 probe
Method: DNA and protein tagging by iDAPT. All iDAPT proteomic labeling assays were performed as described below unless indicated otherwise. 2.5 μmol MEDS-A/B, 2 μmol enzyme, and 1 μmol hemin chloride per channel were incubated at room temperature for 1 hour. 1e7 cells per sample were washed (500×g, 5 minutes, 4° C.), lysed and triturated in 100 μL LB1 (10 mM Tris-HCl pH 7.5, 10 mM NaCl, 3 mM MgCl2, 1% BSA, 0.01% digitonin, 0.1% Tween-20, 0.1% NP-40, and 1× cOmplete EDTA-free protease inhibitor cocktail [Roche]) for 3 minutes, and subsequently supplemented with an additional 1 mL of LB2 (10 mM Tris-HCl pH 7.5, 10 mM NaCl, 3 mM MgCl2, 1% BSA, 0.1% Tween-20, and 1× protease inhibitor). Nuclei were pelleted (500×g, 10 minutes, 4° C.), resuspended with tagmentation reaction mixture (20% dimethylformamide, 10 mM MgCl2, 20 mM Tris-HCl pH 7.5, 33% 1×PBS, 1% BSA, 0.01% digitonin, 0.1% Tween-20, 500 μM biotin-phenol, 1× protease inhibitor, and 2 pmol enzyme equivalent of enzyme:DNA:heme complex in a total volume of 500 μL), and incubated at 37° C. for 30 minutes with agitation on a thermomixer (1,000 rpm). […] Lysates were clarified by centrifugation (15,000×g, 20 minutes, 4° C.), quantified via the detergent-compatible Bradford assay (Thermo Fisher Scientific), and subjected to either Western blotting or quantitative mass spectrometry analyses as described below. […]

HEK293T nuclei = assay: iDAPT protein labeling, western blot of labeled nuclear lysates; format: biochemical, human; conditions: extracted HEK293T nuclei
Method: DNA and protein tagging by iDAPT. All iDAPT proteomic labeling assays were performed as described below unless indicated otherwise. 2.5 μmol MEDS-A/B, 2 μmol enzyme, and 1 μmol hemin chloride per channel were incubated at room temperature for 1 hour. 1e7 cells per sample were washed (500×g, 5 minutes, 4° C.), lysed and triturated in 100 μL LB1 (10 mM Tris-HCl pH 7.5, 10 mM NaCl, 3 mM MgCl2, 1% BSA, 0.01% digitonin, 0.1% Tween-20, 0.1% NP-40, and 1× cOmplete EDTA-free protease inhibitor cocktail [Roche]) for 3 minutes, and subsequently supplemented with an additional 1 mL of LB2 (10 mM Tris-HCl pH 7.5, 10 mM NaCl, 3 mM MgCl2, 1% BSA, 0.1% Tween-20, and 1× protease inhibitor). Nuclei were pelleted (500×g, 10 minutes, 4° C.), resuspended with tagmentation reaction mixture (20% dimethylformamide, 10 mM MgCl2, 20 mM Tris-HCl pH 7.5, 33% 1×PBS, 1% BSA, 0.01% digitonin, 0.1% Tween-20, 500 μM biotin-phenol, 1× protease inhibitor, and 2 pmol enzyme equivalent of enzyme:DNA:heme complex in a total volume of 500 μL), and incubated at 37° C. for 30 minutes with agitation on a thermomixer (1,000 rpm). 5 μL of tagmentation mix was saved for quality assessment as described above for ATAC-seq/iDAPT-seq sample preparation. The remaining nuclear suspension was then washed 2× with 1×PBS supplemented with 500 μM biotin-phenol, 1% BSA, 0.1% Tween-20, and 1× protease inhibitor (3000×g, 5 minutes, 4° C.) and labeled with 1 mM hydrogen peroxide and 500 μM biotin-phenol for 1 minute in 1×PBS with 1× protease inhibitor in a volume of 500 μL. Peroxidation reactions were quenched with 500 μL 2× quenching buffer (10 mM Trolox, 20 mM sodium ascorbate, 20 mM NaN3, and 1× protease inhibitor in 1×PBS). Labeled nuclei were then pelleted, washed with 1× quenching buffer, resuspended in 500 μL RIPA containing protease inhibitors, and frozen at −80° C. Lysates were thawed on ice, sonicated via a Sonic Dismembrator 100 (Fisher Scientific, setting 3, 15 seconds, 4 pulses), and incubated on ice for 30 minutes after the addition of 1 μL benzonase (EMD Millipore). Lysates were clarified by centrifugation (15,000×g, 20 minutes, 4° C.), quantified via the detergent-compatible Bradford assay (Thermo Fisher Scientific), and subjected to either Western blotting or quantitative mass spectrometry analyses as described below. For NB4 cell analysis, an additional endogenous peroxidase blocking step was added after nuclear extraction and before tagmentation: nuclei were resuspended in 500 μL 1×PBS containing 1% BSA, 0.03% hydrogen peroxide, and 0.1% NaN3 and incubated on ice for 30 minutes. Nuclei were pelleted and washed 4× with 1×PBS/1% BSA (3000×g, 5 minutes, 4° C.). Residual hydrogen peroxide was monitored by colorimetric assessment of supernatant via Quantofix peroxides test stick (Sigma).
Western blotting analysis. Whole cell or nuclear lysates were generated by resuspending cells or nuclei in RIPA (Boston BioProducts) supplemented with 1× cOmplete EDTA-free protease inhibitor cocktail (Roche). […] Lysates were clarified by centrifugation (15,000×g, 20 minutes, 4° C.) and their concentrations quantified via the detergent-compatible Bradford assay (Thermo Fisher Scientific). […] Membranes were blocked with 3% milk in PBS-T and incubated overnight with primary antibody and subsequently with secondary antibody after brief washing with PBS-T. Chemiluminescence was determined by applying ECL Western Blotting detection reagent (GE Healthcare) to membranes and imaging on an Amersham Imager 600 (GE Healthcare). […]

[5] = Peroxidase activity assay (Amplex UltraRed/resorufin fluorescence); format: biochemical; conditions: 1 mM hydrogen peroxide, one minute
Method: Peroxidase activity assay. 5 pmol enzyme was incubated with 2.5 pmol hemin chloride (dissolved in DMSO, Cayman Chemical) for 1 hour at room temperature. This molar ratio was selected given reports of APEX2 maximal heme occupancy between 40-57%. Heme:protein complexes were then subjected to 50 μM Amplex UltraRed (Thermo Fisher Scientific) and 1 mM hydrogen peroxide for 1 minute at room temperature in a total volume of 100 μL with 1×PBS. Reactions were then quenched with 100 μL 2× quenching solution (10 mM Trolox, 20 mM sodium ascorbate, and 20 mM NaN3 in 1×PBS), and fluorescence intensities were measured on a SpectraMax iD3 plate reader, with excitation at 530 nm and emission at 590 nm.
Peroxidase activity assay. 5 pmol enzyme was incubated with 2.5 pmol hemin chloride (Cayman Chemical, dissolved in DMSO) for 1 hour at room temperature. This molar ratio was selected given reports of APEX2 maximal heme occupancy between 40-57%. […] Reactions were then quenched with 100 μL 2× quenching solution (10 mM Trolox, 20 mM sodium ascorbate, and 20 mM NaN3 in 1×PBS), and fluorescence intensities were measured on a SpectraMax iD3 plate reader with the SoftMax Pro v7.0.3 software, with excitation at 530 nm and emission at 590 nm.

| Molecule | proliferation (cell counts) (NB4 cells [1]) | differentiation (NB4 cells [2]) | effect on PML-RARA oncogenic fusion protein [3] | enrichment of PU.1/SPI1, CEBPB, and CEBPE on open chromatin (NB4 cells [4]) | enrichment of RARA on open chromatin (NB4 cells [4]) | peroxidase-dependent biotin signal (HEK293T nuclei) | peroxidase activity via resorufin fluorescence [5] |
| --- | --- | --- | --- | --- | --- | --- | --- |
| CC1=C(/C=C/C(C)=C/C=C/C(C)=C/C(=O)O)C(C)(C)CCC1 [ATRA, All-trans retinoic acid] | decreased proliferation | granulocytic differentiation | degradation of the PML-RARA oncogenic fusion protein | positive enrichment | negative enrichment |  |  |
| B1 |  |  |  |  |  | low signal | detected |

From patent US20230024461A1, “METHODS FOR DUAL DNA/PROTEIN TAGGING OF OPEN CHROMATIN” (Beth Israel Deaconess Medical Center, Inc., priority 2019, published 2023)
